Source: publication PMC11767423, “Design, Synthesis, and Antioxidant and Anti-Tyrosinase Activities of (Z)-5-Benzylidene-2-(naphthalen-1-ylamino)thiazol-4(5H)-one Analogs: In Vitro and In Vivo Insights” (Molecules, 2025)

Legend:
[1] = Assay for DPPH radical scavenging; conditions: 500 μM; 30 min in the dark
Method: To evaluate the DPPH radical-scavenging efficacy of 1–15, a DPPH methanol solution was mixed with compounds 1–15, and the mixture was left in the dark. After 30 min, the radical-scavenging efficacy of each compound was determined by measuring the optical density at 517 nm. Vitamin C (L-ascorbic acid) was used for comparing radical-scavenging activity, and all test samples were treated at 500 μM.
DPPH was dissolved in methanol to prepare a 0.2 mM solution, and test samples (vitamin C [L-ascorbic acid, LA; positive control] and 1–15) were dissolved in DMSO to prepare a 5 mM solution. The DPPH methanolic solution (180 μL) was added to the test sample DMSO solution (20 μL) in each well of a 96-well microplate and kept in a place without light for 30 min at 22 °C. Using a VersaMax™ ELISA reader, the optical density of each well was recorded at 517 nm to determine DPPH radical-scavenging activity.

B16F10 cells [2] = test: Melanin content assay in B16F10 cells; type: cell-based; conditions: α-MSH + IBMX, 72 h
Method: After 72 h, the effect of compound 10 on melanin biosynthesis was determined. A 6-well microplate containing 5 × 10^3 B16F10 cells per well was incubated at 37 °C for 24 h. Compound 10 was added to each well at 5, 10, and 20 μM and incubated for 1 h, and then stimulators (1 μM α-MSH and 200 μM IBMX) were added to each well before 72 h incubation. […] For the melanin content quantification, the cells were lysed at 60 °C for 1 h in 100 μL 1N-NaOH solution containing 10% DMSO after washing 2 times with phosphate-buffered saline (PBS). The cell lysates were transferred to a 96-well microplate and the optical density was measured at 405 nm using an ELISA reader to calculate the melanin content in each well.

[3] = Assay for ABTS+ radical scavenging; conditions: 100 μM
Method: The ABTS^+-scavenging efficacy of compounds 1–15 was determined by oxidizing ABTS with K2S2O8 to prepare ABTS^+. The prepared ABTS^+ solution was mixed with the test samples (1–15 and Trolox, a positive control) and the radical-scavenging efficacy of the test samples was explored by measuring the decrease in optical density at 732 nm. All test samples were tested at 100 μM.
To acquire ABTS^+ radicals, ABTS (14 mM in 20 mL H2O) was mixed with K2S2O8 (4.9 mM in 20 mL H2O), an oxidant agent, and stored at 22 °C in a place without light for 15 h. The absorbance of the prepared ABTS^+ radical solution was adjusted to 0.70 ± 0.01 at 732 nm by adding methanol. Test samples (Trolox [positive control] and 1–15) were dissolved in a co-solvent (DMSO:EtOH = 1:10 [v/v]). The diluted ABTS^+ radical solution (90 μL) was added to the test sample solution (10 μL) in each well of a 96-well plate and held at 22 °C in the dark for 2 min. The optical density of each well was recorded at 732 nm every 1 min for 10 min using an ELISA reader. The final concentration of test samples was 100 μM. %Radical-scavenging activity was determined using the formula 100 × [(Abscon − Abssam)/Abscon], where Abscon and Abssam represent the optical densities of the control and the samples, respectively.

mushroom tyrosinase = mushroom tyrosinase (Agaricus bisporus, UniProt C7FF04); test: Kinetic experiment using mushroom tyrosinase (Lineweaver–Burk and Dixon plots); type: biochemical; conditions: for Ki: Dixon plots, substrate L-DOPA; for inhibition mechanism: Lineweaver–Burk plots, L-DOPA 1–16 mM
Method: The plots for inhibitors 10 and 15 were obtained by measuring the initial rate of dopachrome production in the presence of various L-DOPA substrate concentrations (Figure 3A,C). For the kinetic experiments, compounds 10 and 15 were used at 0, 1, 2, and 4 μM and at 0, 4, 8, and 16 μM, respectively.
Ki, known as the dissociation constant or inhibition constant, describes the binding affinity between the enzyme and inhibitor. […] Dixon plots were acquired by plotting the inverse of the initial dopachrome formation rate against the inhibitor concentration (Figure 3B,D). Each Dixon plot produces four lines that merge at one point in the second quadrant. The absolute value of the x co-ordinate of the merge point represents the Ki value. […] The lower the Ki value, the stronger the binding affinity. Thus, compound 10 bound more strongly to the tyrosinase active site than compound 15.
The identification of the tyrosinase inhibition mechanism was carried out by kinetic studies using mushroom tyrosinase. Test samples (10 μL; compounds 10 and 15) were mixed with a mushroom tyrosinase aqueous solution (20 μL; 100 units/mL) and a substrate solution (170 μL; substrate [L-DOPA] and 17.2 mM sodium phosphate pH 6.5 buffer) in each well of 96-well microplate. To obtain Lineweaver–Burk plots for kinetic analysis, L-DOPA and test samples were used at various concentrations: 0, 1, 2, and 4 μM for 10; 0, 4, 8, and 16 μM for 15; and 1, 2, 4, 8, and 16 mM for L-DOPA. During a 30 min incubation period, the initial dopachrome formation rate was calculated by measuring the optical density at 475 nm at 5 min intervals using an ELISA reader. Lineweaver–Burk plots were prepared by plotting the inverse of the substrate concentration against the inverse of the initial dopachrome formation rate in the presence of four different concentrations of compounds 10 and 15.

B16F10 cells [4] = test: Cell viability on B16F10 cells (EZ-Cytox); type: cell-based; conditions: 72 h; for B16F10 cell viability: 1, 2, 5, 10 and 20 μM
Method: Therefore, we investigated whether these compounds exert tyrosinase inhibitory activity in B16F10 mammalian cells. We examined the effects of these compounds on B16F10 cell viability. Cell viability was assessed for 72 h at five concentrations (1, 2, 5, 10, and 20 μM) of compounds 10 and 15.
The viability of B16F10 cells in the presence of compounds 10 and 15 was assayed. A 96-well microplate containing 1 × 10^3 B16F10 cells per well was incubated at 37 °C in a humid environment containing 5% CO2 for 24 h. Test samples (10 and 15) were added to each well at concentrations of 0, 1, 2, 5, 10, and 20 μM and incubated for 72 h. Each well was exposed to a 10 μL EZ-Cytox solution (EZ-500®, DoGenBio, Seoul, Republic of Korea) and incubated for 2 h. To determine cell viability, well optical density was measured at 450 nm using an ELISA reader.

B16F10 cells [5] = test: In situ cellular tyrosinase activity assay (L-DOPA staining); type: cell-based; conditions: α-MSH + IBMX, 72 h, then L-DOPA 2 h
Method: The effect of 10 on cellular tyrosinase activity was investigated in situ using L-DOPA and B16F10 cells. This experimental method allows for the direct observation of cellular melanin production. […] After 72 h of incubation, the cells were treated with L-DOPA for 2 h to induce melanin production.
A 24-well plate containing 1 × 10^3 B16F10 cells per well was incubated at 37 °C for 24 h. […] After incubation for 72 h, the cells were fixed for 50 min using paraformaldehyde (4%), rinsed twice with PBS, and permeabilized for 2 min using Triton X-100 (0.1%). The cells were washed with PBS and 500 μL of 2 mM L-DOPA solution was added. After the cells were incubated at 37 °C for 2 h, stained images were obtained using a camera connected to a microscope (Motic, Hong Kong, China).

[6] = test system: B16F10 cellular tyrosinase; test: Cellular tyrosinase activity assay in B16F10 cells; type: cell-based; conditions: α-MSH + IBMX, 72 h
Method: We analyzed the effect of 10 on B16F10 cellular tyrosinase activity to determine whether the ability of 10 inhibiting melanogenesis results from its ability to inhibit cellular tyrosinase activity.
A 6-well microplate containing 5 × 10^3 B16F10 cells per well was incubated at 37 °C for 24 h. Compound 10 was added to each well at 5, 10, and 20 μM and incubated for 1 h, and then stimulators (1 μM α-MSH and 200 μM IBMX) were added to each well before 72 h incubation.
To measure the cellular tyrosinase activity, the cells incubated for 72 h were washed 2 times with PBS, exposed to a 100 μL lysis buffer solution containing 5 μL 2 mM phenylmethylsulfonyl fluoride, 5 μL 20% Triton X-100, and 90 μL 50 mM phosphate buffer (pH 6.5), and cultivated for 30 min at −80 °C. After the lysates were centrifuged at 4 °C for 10 min at 10,000× g, an aliquot (80 μL) of the supernatants was added to each well of a 96-well microplate containing 20 μL of 10 mM L-DOPA. Data for the optical density at 475 nm were obtained every 1 min for 10 min at 37 °C using an ELISA reader to determine cellular tyrosinase activity.

[7] = test system: tyrosinase activity of zebrafish larvae; test: Tyrosinase activity in zebrafish larvae; type: in vivo, Danio rerio; conditions: 76 hpf
Method: To quantify the tyrosinase activity in zebrafish larvae, 60 zebrafish larvae at 76 hpf were divided into three Eppendorf tubes and centrifuged at 10,000× g for 10 min at 4 °C. After removing the supernatant, the residue was lysed using radioimmunoprecipitation assay buffer (100 μL) (Biosedang, Gyeonggi-do, Republic of Korea) and homogenized for 5 min using a sonicator. The lysate was centrifuged at 10,000× g for 10 min at 4 °C. The supernatants were transferred to a new Eppendorf tube and the protein content was quantified using a bicinchoninic acid protein assay kit (Thermo Fisher Scientific, Waltham, MA, USA). An aliquot (100 μL) of 1 mM L-DOPA was added to the new Eppendorf tube containing a total of 300 μg of protein in 100 μL of protein lysate. Eppendorf tubes were incubated for 1 h at 37 °C and then transferred to each well of a 96-well plate. The absorbance of each well was measured at 475 nm to determine the tyrosinase activity of zebrafish larvae.

zebrafish larvae = test: Zebrafish depigmentation assay using zebrafish embryos; type: in vivo, Danio rerio; conditions: 0.1 mM vs kojic acid 20 mM; treated at 28 hpf, read at 76 hpf
Method: Zebrafish embryos were used to determine whether the synthesized compounds could inhibit melanin synthesis in vivo. […] The degree of depigmentation in zebrafish larvae was confirmed by photography 48 h later (Figure 8A). The density of the zebrafish larvae was measured using a CS analyzer 3.2 (Atto, Tokyo, Japan). […] To obtain zebrafish (wild type, Danio rerio) eggs for the experiment, six male and nine female zebrafish were raised separately in oxygen-connected tanks. Dried brine shrimp (Artemia salina, San Francisco Bay Brand, San Francisco, CA, USA) were fed as food three times per day. They were raised at 28 °C with 10 h of light blocking and 14 h of light exposure. The evening before obtaining zebrafish eggs, three females and two males were placed together in three zebrafish mating cages, and the light was blocked. The following morning, mating was induced by exposure to light. Harvested zebrafish eggs, obtained free of charge from the Zebrafish Center for Disease Modeling (Chungnam National University, Daejeon, Republic of Korea), were kept in an E3 embryonic solution containing methylene blue (MB) until the dechorionation process was performed. […] The pigmented areas in the zebrafish larval photographs were determined using an ATTO CS analyzer 3.2 (Tokyo, Japan).

Chain of mushroom tyrosinase (C7FF04 1-392): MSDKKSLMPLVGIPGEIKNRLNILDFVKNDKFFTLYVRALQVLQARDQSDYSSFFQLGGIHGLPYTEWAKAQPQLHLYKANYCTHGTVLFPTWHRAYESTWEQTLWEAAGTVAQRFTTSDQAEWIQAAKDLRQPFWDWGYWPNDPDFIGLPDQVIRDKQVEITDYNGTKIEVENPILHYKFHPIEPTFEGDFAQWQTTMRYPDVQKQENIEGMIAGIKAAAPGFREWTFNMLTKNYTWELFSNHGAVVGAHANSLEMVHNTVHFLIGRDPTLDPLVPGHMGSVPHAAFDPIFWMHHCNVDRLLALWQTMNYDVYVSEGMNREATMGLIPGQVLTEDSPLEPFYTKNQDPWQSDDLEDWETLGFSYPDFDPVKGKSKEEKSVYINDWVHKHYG

SMILES: COc1cc(/C=C2\SC(Nc3cccc4ccccc34)=NC2=O)ccc1O [Compound 5, (Z)-5-(4-Hydroxy-3-methoxybenzylidene)-2-(naphthalen-1-ylamino)thiazol-4(5H)-one]
- DPPH radical scavenging [1]: 62%

SMILES: COc1ccc(/C=C2\SC(Nc3cccc4ccccc34)=NC2=O)cc1O [Compound 6, (Z)-5-(3-Hydroxy-4-methoxybenzylidene)-2-(naphthalen-1-ylamino)thiazol-4(5H)-one]
- DPPH radical scavenging [1]: 21%

SMILES: CCOc1cc(/C=C2\SC(Nc3cccc4ccccc34)=NC2=O)ccc1O [Compound 7, (Z)-5-(3-Ethoxy-4-hydroxybenzylidene)-2-(naphthalen-1-ylamino)thiazol-4(5H)-one]
- DPPH radical scavenging [1]: 61%

SMILES: O=C1N=C(Nc2cccc3ccccc23)S/C1=C\c1ccc(O)cc1O [Compound 10, (Z)-5-(2,4-Dihydroxybenzylidene)-2-(naphthalen-1-ylamino)thiazol-4(5H)-one]
- stimulator-induced melanin content (B16F10 cells [2]; 5 μM, kojic acid at 20 μM): reduced the stimulator-induced melanin content levels similarly to kojic acid
- melanin content level (B16F10 cells [2]; 20 μM, controls 100%): 86%
- stimulator-induced melanin content (B16F10 cells [2]; 5, 10 and 20 μM): strongly reduced stimulator-induced melanin content dose-dependently
- ABTS+ scavenging [3]: 97%
- Ki (mushroom tyrosinase): 2.04 µM
- inhibition mechanism (mushroom tyrosinase): compete with the substrates for binding to the active site of tyrosinase
- B16F10 cell viability (B16F10 cells [4]): no perceptible effect on B16F10 cell viability
- DPPH radical scavenging [1]: 51%
- in situ melanin formation (L-DOPA staining) (B16F10 cells [5]; 20 μM): reduced melanin formation to the level of the untreated control
- in situ melanin formation (L-DOPA staining) (B16F10 cells [5]; 5, 10 and 20 μM): dose-dependently decreased melanin formation
- cellular tyrosinase activity ([6]; 10 μM): slightly more potent tyrosinase inhibitory potency than kojic acid at 20 μM
- cellular tyrosinase activity ([6]; 20 μM): reduced cellular tyrosinase activity to almost the level of cellular tyrosinase activity in the untreated control
- cellular tyrosinase activity ([6]; 5, 10 and 20 μM): dose-dependent decrease in cellular tyrosinase activity

SMILES: COc1cc(/C=C2\SC(Nc3cccc4ccccc34)=NC2=O)cc(OC)c1O [Compound 13, (Z)-5-(4-Hydroxy-3,5-dimethoxybenzylidene)-2-(naphthalen-1-ylamino)thiazol-4(5H)-one]
- ABTS+ scavenging [3]: 97%
- DPPH radical scavenging [1]: 51%

SMILES: CC(C)(C)c1cc(/C=C2\SC(Nc3cccc4ccccc34)=NC2=O)cc(C(C)(C)C)c1O [Compound 14, (Z)-5-(3,5-Di-tert-butyl-4-hydroxybenzylidene)-2-(naphthalen-1-ylamino)thiazol-4(5H)-one]
- ABTS+ scavenging [3]: 95%
- DPPH radical scavenging [1]: 68%

SMILES: O=C1N=C(Nc2cccc3ccccc23)S/C1=C\c1ccc(O)c(Br)c1 [Compound 15, (Z)-5-(3-Bromo-4-hydroxybenzylidene)-2-(naphthalen-1-ylamino)thiazol-4(5H)-one]
- Ki (mushroom tyrosinase): 4.87 µM
- inhibition mechanism (mushroom tyrosinase): compete with the substrates for binding to the active site of tyrosinase
- cytotoxicity in B16F10 cells (B16F10 cells [4]; 1 μM): significant cytotoxicity was observed
- B16F10 cell viability (B16F10 cells [4]): clearly reduced cell viability in a concentration-dependent manner
- tyrosinase activity of zebrafish larvae compared with kojic acid ([7]; 0.3 mM vs kojic acid 20 mM): comparable to that of kojic acid, even at a concentration 70 times lower
- tyrosinase activity of zebrafish larvae ([7]; 0.1 and 0.3 mM): decreased tyrosinase activity in a concentration-dependent manner
- depigmentation capacity in zebrafish larvae (zebrafish larvae): depigmentation capacity similar to that of kojic acid, even at a concentration 200 times lower

SMILES: O=C1O[C@H]([C@@H](O)CO)C(O)=C1O [Vitamin C, L-ascorbic acid, reference compound]
- DPPH radical scavenging [1]: 90%
